Source: patent US20230181536A1, “ANTICANCER COMBINATION THERAPY WITH N-(1-ACRYLOYL-AZETIDIN-3-YL)-2-((1H-INDAZOL-3-YL)AMINO)METHYL)-1H-IMIDAZOLE-5-CARBOXAMIDE INHIBITOR OF KRAS-G12C” (TAIHO PHARMACEUTICAL CO., LTD., priority 2020, published 2023)

Target: T1, KRAS G12C (Homo sapiens, UniProt P01116, G12C)
T1 construct: KRAS G12C (amino acid region: 1-169)
Experiment: Inhibitory activity on the KRAS G12C nucleotide (GDP-GTP) exchange reaction
Type: biochemical
Conditions: Bodipy FL GDP-bound KRAS G12C 25 nM; preincubation at 25° C. for 4 hours; SOS1 100 nM, GppNHp 1 μM, reaction for 30 minutes
Procedure: Test Example 2: Evaluation of Inhibitory Activity of Compounds on the KRAS G12C Nucleotide (GDP-GTP) Exchange Reaction
The inhibitory activity of compounds on the exchange reaction of GDP into GppNHp in Bodipy (trademark) FL-bound KRAS G12C was examined by fluorescence measurement using human recombinant KRAS G12C and SOS1 proteins.
For the preparation of KRAS G12C to which Bodipy FL GDP was bound, first, 50 µM KRAS G12C (amino acid region: 1-169) and 1 mM Bodipy FL GDP (Invitrogen, G22360) were incubated for 1 hour in a buffer (20 mM Tris-HCl (pH 7.5), 50 mM NaCl, 1 mM DTT) in ice in the presence of 2.5 mM EDTA. Thereafter, MgCl2 with a final concentration of 10 mM was added, and the mixture was incubated at room temperature for 30 minutes. The protein was allowed to pass through a NAP-5 column to remove free nucleotides and was used for compound evaluation.
For the measurement of the inhibitory activity of compounds on nucleotide exchange reaction, first, the compound of the disclosure was diluted stepwise with dimethyl sulfoxide (DMSO). Subsequently, a solution of the gradually diluted compound of the disclosure in DMSO (the final concentration of DMSO: 5%) and KRAS G12C (25 nM) bound to Bodipy FL GDP were added to a reaction buffer (20 mM Tris-HCl (pH 7.5), 100 mM NaCl, 1 mM MgCl2, 2 mM DTT, 0.1% Tween20), followed by preincubation at 25° C. for 4 hours. Thereafter, Son of Sevenless Homolog 1 (SOS1, amino acid region: 564-1049) and GppNHp (GMPPNP, Jena Bioscience GmbH, NU-401-50) were added such that their final concentration was 100 nM and 1 μM respectively, followed by reaction for 30 minutes. The change in fluorescence intensity of Bodipy FL (excitation wavelength: 485 nm, fluorescence wavelength: 520 nm) immediately after the start of reaction and after 30 minutes from the start of reaction was standardized. The signal value for only DMSO was determined to be 0% inhibition, and the signal value for no addition of GppNHp was determined to be 100% inhibition. The compound concentration at which 50% inhibition is achieved was determined to be the IC50 (nM) and was calculated.

T1 sequence (P01116 1-169 isoform P01116-2 G12C): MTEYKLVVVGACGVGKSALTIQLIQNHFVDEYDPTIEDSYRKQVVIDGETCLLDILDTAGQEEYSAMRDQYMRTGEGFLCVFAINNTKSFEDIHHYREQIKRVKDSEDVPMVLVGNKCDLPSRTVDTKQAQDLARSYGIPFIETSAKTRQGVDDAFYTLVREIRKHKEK

| Compound | IC50 |
| --- | --- |
| C=CC(=O)N1C[C@@H](NC(=O)c2c(C)nc(CNc3n[nH]c4cc(Cl)c(C(C)(C)C)cc34)n2C)[C@@H]1C (relative stereo) [Example 59, N-(trans-1-acryloyl-2-methylazetidin-3-yl)-2-(((5-(tert-butyl)-6-chloro-1H-indazol-3-yl)amino)methyl)-1,4-dimethyl-1H-imidazole-5-carboxamide] | 85 nM |
| C=CC(=O)N1CC(NC(=O)c2cnc(CNc3n[nH]c4cc(Cl)c(C(C)(C)C)cc34)n2C)C1 [Example 1, N-(1-acryloylazetidin-3-yl)-2-(((5-(tert-butyl)-6-chloro-1H-indazol-3-yl)amino)methyl)-1-methyl-1H-imidazole-5-carboxamide] | 16 nM |
| C=CC(=O)N1CC(NC(=O)c2sc(CNc3n[nH]c4cc(Cl)c(C(C)(C)C)cc34)nc2C)C1 [Example 2, N-(1-acryloylazetidin-3-yl)-2-(((5-(tert-butyl)-6-chloro-1H-indazol-3-yl)amino)methyl)-4-methylthiazole-5-carboxamide] | 365 nM |
| C=CC(=O)N1CC(NC(=O)c2c(C)nc(CNc3n[nH]c4cc(Cl)c(C(C)(C)C)cc34)n2C)C1 [Example 3, N-(1-acryloylazetidin-3-yl)-2-(((5-(tert-butyl)-6-chloro-1H-indazol-3-yl)amino)methyl)-1,4-dimethyl-1H-imidazole-5-carboxamide] | 9 nM |
| C=CC(=O)N1CC(NC(=O)c2cnc(C(C)Nc3n[nH]c4cc(Cl)c(C(C)(C)C)cc34)n2C)C1 (stereo not drawn) [Example 4, N-(1-acryloylazetidin-3-yl)-2-(1-((5-(tert-butyl)-6-chloro-1H-indazol-3-yl)amino)ethyl)-1-methyl-1H-imidazole-5-carboxamide] | 1560 nM |
| [2H]C([2H])(Nc1n[nH]c2cc(Cl)c(C(C)(C)C)cc12)c1nc(C)c(C(=O)NC2CN(C(=O)C=C)C2)n1C [Example 5, N-(1-acryloylazetidin-3-yl)-2-(((5-(tert-butyl)-6-chloro-1H-indazol-3-yl)amino)methyl-d2)-1,4-dimethyl-1H-imidazole-5-carboxamide] | 10 nM |
| C=CC(=O)N1CC(NC(=O)c2c(Cl)c(CNc3n[nH]c4cc(Cl)c(C(C)(C)C)cc34)nn2C)C1 [Example 6, N-(1-acryloylazetidin-3-yl)-3-(((5-(tert-butyl)-6-chloro-1H-indazol-3-yl)amino)methyl)-4-chloro-1-methyl-1H-pyrazole-5-carboxamide] | 791 nM |
| C=CC(=O)N1CC(NC(=O)c2csc(CNc3n[nH]c4cc(Cl)c(C(C)(C)C)cc34)n2)C1 [Example 7, N-(1-acryloylazetidin-3-yl)-2-(((5-(tert-butyl)-6-chloro-1H-indazol-3-yl)amino)methyl)thiazole-4-carboxamide] | 4260 nM |
| C=CC(=O)N1CC(NC(=O)c2cnc(CNc3n[nH]c4cc(Cl)c(C(C)(C)C)cc34)s2)C1 [Example 8, N-(1-acryloylazetidin-3-yl)-2-(((5-(tert-butyl)-6-chloro-1H-indazol-3-yl)amino)methyl)thiazole-5-carboxamide] | 783 nM |
| C=CC(=O)N1CC(NC(=O)c2cc(CNc3n[nH]c4cc(Cl)c(C(C)(C)C)cc34)nn2C)C1 [Example 9, N-(1-acryloylazetidin-3-yl)-3-(((5-(tert-butyl)-6-chloro-1H-indazol-3-yl)amino)methyl)-1-methyl-1H-pyrazole-5-carboxamide] | 3140 nM |
| C=CC(=O)N1CC(NC(=O)c2c(C)c(CNc3n[nH]c4cc(Cl)c(C(C)(C)C)cc34)nn2C)C1 [Example 10, N-(1-acryloylazetidin-3-yl)-3-(((5-(tert-butyl)-6-chloro-1H-indazol-3-yl)amino)methyl)-1,4-dimethyl-1H-pyrazole-5-carboxamide] | 129 nM |
| C=CC(=O)N1CC(NC(=O)c2oc(CNc3n[nH]c4cc(Cl)c(C(C)(C)C)cc34)nc2C)C1 [Example 11, N-(1-acryloylazetidin-3-yl)-2-(((5-(tert-butyl)-6-chloro-1H-indazol-3-yl)amino)methyl)-4-methyloxazole-5-carboxamide] | 1060 nM |
